Series [1] has as its target Somatostatin receptor type 2 (Rattus norvegicus, UniProt P30680). Briefly: Displacement of [125I]SRIF14 from rat sst2 receptor from rat brain cortex membrane. (In general: In a radioligand displacement assay an active substance lowers the binding of a labelled ligand.)
Series [2] in a line: Ratio of drug level in brain to plasma in mouse at 10 mg/kg, po after 1 hr. Also noted: dose 10 mg/kg, route oral. The settings on record: brain and plasma, read-out: BPR. It counts as ADME, organism-based.
In series [3] the target is Somatostatin receptor type 1 (Rattus norvegicus, UniProt P28646). Put plainly: Displacement of [125I]SRIF14 from rat sst1 receptor from rat brain cortex membrane.
For series [4], the species on record is Rattus norvegicus. Put plainly: Selectivity for rat sst1 receptor over rat sst2 receptor.
Series [5] is described as follows: Oral bioavailability in rat at 10 mg/kg. It counts as ADME, organism-based. To be noted: in vivo.
Series [6] concerns Rattus norvegicus. Briefly: Volume of distribution at steady state in rat at 10 mg/kg, po. Further details: dose 10 mg/kg, route oral. To be noted: in vivo. It counts as ADME, organism-based.
Series [7] in a line: Ratio of drug level in brain to plasma in rat at 10 to 100 mg/kg, po after 90 mins. It counts as ADME, organism-based. Also noted: dose 10-100 mg/kg, route oral. To be noted: brain and plasma, read-out: BPR.
Series [8] can be described thus: Clearance in rat at 10 mg/kg, po. It counts as ADME, organism-based. The settings on record: in vivo. Also noted: dose 10 mg/kg, route oral.

SMILES strings stand for the structures. A value given as a limit tells only on which side of the number the result lay.

Somatostatin receptor type 2, sequence (P30680 whole entry): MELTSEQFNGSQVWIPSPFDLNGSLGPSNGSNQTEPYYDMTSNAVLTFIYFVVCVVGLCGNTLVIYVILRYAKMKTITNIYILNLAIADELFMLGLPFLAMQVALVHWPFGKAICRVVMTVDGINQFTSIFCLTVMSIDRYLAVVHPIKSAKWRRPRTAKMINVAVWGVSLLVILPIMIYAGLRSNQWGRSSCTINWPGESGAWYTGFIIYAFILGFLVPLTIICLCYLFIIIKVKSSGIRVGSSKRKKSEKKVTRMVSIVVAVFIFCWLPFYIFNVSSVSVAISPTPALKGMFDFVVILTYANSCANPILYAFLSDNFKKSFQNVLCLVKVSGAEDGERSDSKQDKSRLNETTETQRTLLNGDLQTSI
Somatostatin receptor type 1, sequence (P28646 whole entry): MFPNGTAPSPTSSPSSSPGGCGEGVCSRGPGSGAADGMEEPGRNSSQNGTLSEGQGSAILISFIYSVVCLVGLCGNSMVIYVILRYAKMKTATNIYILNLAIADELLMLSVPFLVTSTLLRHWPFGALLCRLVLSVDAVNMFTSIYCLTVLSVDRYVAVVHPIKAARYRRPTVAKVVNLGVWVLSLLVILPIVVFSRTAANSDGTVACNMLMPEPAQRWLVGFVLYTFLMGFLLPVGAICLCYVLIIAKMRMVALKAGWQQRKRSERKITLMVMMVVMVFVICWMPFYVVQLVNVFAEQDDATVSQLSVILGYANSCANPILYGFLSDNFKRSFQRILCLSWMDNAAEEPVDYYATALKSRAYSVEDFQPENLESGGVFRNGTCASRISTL

The Kd is a measure of binding affinity in units of concentration. Read a low Kd as higher affinity. Turning to `COc1cccc2c1C[C@H]1C[C@@H](C(=O)N3CCN(c4ccc5nsnc5c4)CC3)CN(C)[C@@H]1C2`, the Kd is 4270 nM in series [1] and 10.7 nM in series [3]. Also, the Kp at 1 h in series [2] was 4.8.

`COc1cccc2c1C[C@H]1C[C@@H](C(=O)N3CCN(c4ccc(F)c(F)c4)CC3)CN(C)[C@@H]1C2`: the Kd in series [1] is 16600 nM; in series [3], 0.741 nM. The Selectivity ratio in series [4] was > 22000. In addition, the Kp at 1 h in series [2] amounted to 7.5.

Broadly, the bioavailability is dose-corrected exposure relative to a reference, in per cent. Read a low bioavailability as little systemic uptake. Usually CL/F stands for clearance divided by bioavailability, as obtained after extravascular dosing. In turn, `COc1cccc2c1C[C@H]1C[C@@H](C(=O)N3CCN(c4ccc([N+](=O)[O-])cc4)CC3)CN(C)[C@@H]1C2` [OBELIN] returned a bioavailability in series [5] of 35%. The Kd in series [1] was 7760 nM; in series [3], 0.708 nM. The same compound had a Vdss in series [6] of 3 L/kg. Also, the Kp at 1.5 h in series [7] turned out to be 10. In addition, the CL/F in series [8] was found to be 5 mL/min. Further, in series [4], the Selectivity ratio is > 10000.

As to `COc1cccc2c1C[C@H]1C[C@@H](C(=O)N3CCN(c4ccc5nsnc5n4)CC3)CN(C)[C@@H]1C2`, the results for the Kd in series [1] and in series [3] were 5750 nM and 1.23 nM, respectively. Moreover, in series [4], the Selectivity ratio was > 4600. In addition, in series [2], the Kp at 1 h amounted to 1.8.

As to `COc1cccc2c1C[C@H]1C[C@@H](C(=O)N3CCN(c4cccc(=O)[nH]4)CC3)CN(C)[C@@H]1C2`, the figures for the Kd in series [1] and in series [3] were 11700 nM and 7.59 nM, respectively.

As for `COc1cccc2c1C[C@H]1C[C@@H](C(=O)N3CCN(c4ccc5nccn5n4)CC3)CN(C)[C@@H]1C2`, the figures for the equilibrium dissociation constant (Kd) in series [1] and in series [3] were 20900 nM and 87.1 nM, respectively.

For `COc1cccc2c1C[C@H]1C[C@@H](C(=O)N3CCN(c4cccc(F)c4)CC3)CN(C)[C@@H]1C2`, the Kd in series [1] is 21400 nM; in series [3], 3.31 nM.

Regarding `COc1cccc2c1C[C@H]1C[C@@H](C(=O)N3CCN(c4ccc(C(F)(F)F)cn4)CC3)CN(C)[C@@H]1C2`, the values for the Kd in series [1] and in series [3] were 20000 nM and 105 nM, respectively.

Turning to `COc1cccc2c1C[C@H]1C[C@@H](C(=O)N3CCN(c4ccncc4)CC3)CN(C)[C@@H]1C2`, the Kd in series [1] was 17800 nM; in series [3], 1860 nM.

For the compound `COc1cccc2c1C[C@H]1C[C@@H](C(=O)N3CCN(c4ncccc4OS(=O)(=O)C(F)(F)F)CC3)CN(C)[C@@H]1C2`, the Kd in series [1] was 10500 nM; in series [3] it was 562 nM.

`COc1cccc2c1C[C@H]1C[C@@H](C(=O)N3CCN(c4cc(C)nc5ccccc45)CC3)CN(C)[C@@H]1C2`: the Kd in series [1] was 5250 nM; in series [3], 692 nM.

Take `COc1cccc2c1C[C@H]1C[C@@H](C(=O)N3CCN(Cc4ccccc4)CC3)CN(C)[C@@H]1C2`: the Kd in series [1] was 9120 nM; in series [3], 457 nM.

Take `COc1cccc2c1C[C@H]1C[C@@H](C(=O)N3CCN(c4ccc([N+](=O)[O-])cc4S(C)(=O)=O)CC3)CN(C)[C@@H]1C2`: the Kd in series [1] was 5250 nM; in series [3], 1.74 nM.

For `COc1cccc2c1C[C@H]1C[C@@H](C(=O)N3CCN(c4cccc(C(F)(F)F)c4)CC3)CN(C)[C@@H]1C2`, the Kd was 13200 nM in series [1] and 23.4 nM in series [3].

On to `COc1cccc2c1C[C@H]1C[C@@H](C(=O)N3CC=C(c4ccc(Cl)cc4)CC3)CN(C)[C@@H]1C2`, for which the dissociation constant (Kd) is 2510 nM in series [1] and 81.3 nM in series [3].

The values are drawn from ChEMBL document CHEMBL1139995, “SAR of the arylpiperazine moiety of obeline somatostatin sst1 receptor antagonists” (Bioorg Med Chem Lett, 2007).
